Assays:
pigs [1] = test: Dietary supplementation of female pigs: survivability and live births per litter; type: in vivo; conditions: vs no supplementation and vs carnosine
Excerpt: Beta-alanine will be used as a dietary supplement for pigs.
(§1) Beta-alanine supplementation will be provided to female pigs during pregnancy. Beta-alanine will be provided in dosages provided in concentrations and/or percentages for times described in this disclosure. Controls will be provided. Controls will include a group of female pigs given no additional supplementation beyond those currently administered during pig pregnancies. Another control group will be provided with supplementation with carnosine at dosages provided in concentrations and/or percentages for times described in this disclosure.
as §1, with “female pigs prior to and during pregnancy.” for “female pigs during pregnancy.”
as §1, with “pigs starting from breeding age through” for “pigs during”
as §1, with “pigs from birth through” for “pigs during”

chickens = conditions: Example 2: supplementation of female chickens during pregnancy; vs no supplementation and vs carnosine
Excerpt: (§2) Beta-alanine will be used as a dietary supplement for pigs and chickens.
as §1, with “pigs and female chickens” for “pigs”, “pig and chicken” for “pig”, “carnosine provided in” for “carnosine at”

pigs [2] = conditions: Example 2: supplementation of female pigs during pregnancy; vs no supplementation and vs carnosine
Excerpt: as §2
as §1, with “pigs and female chickens” for “pigs”, “pig and chicken” for “pig”, “carnosine provided in” for “carnosine at”

[3] = taken as a free amino acid; some individuals; cited from earlier work
[4] = Example 1: supplementation during pregnancy
[5] = Example 3: supplementation prior to and during pregnancy
[6] = Example 4: supplementation from breeding age through pregnancy
[7] = Example 5: supplementation from birth through pregnancy

NCCC(=O)O [beta-alanine]
improves: amount of live births per litter (pigs [1]; [4]) | survivability (pigs [1]; [4]) | amount of live births per litter (pigs [1]; [5]) | survivability (pigs [1]; [5]) | amount of live births per litter (pigs [1]; [6]) | survivability (pigs [1]; [6]) | amount of live births per litter (pigs [1]; [7]) | survivability (pigs [1]; [7]) | early development rate for chicks (chickens) | early development rate for piglets (pigs [2])
less than 60 minutes: duration of flushing/tingling of the skin [3]

Reference: patent publication US20170087108A1, “METHODS OF IMPROVING PHYSIOLOGICAL CONDITIONS RELATED TO PREGNANCY THROUGH DIETARY SUPPLEMENTATION” (Natural Alternatives International, Inc., priority 2015, published 2017)
